The source of these data is patent US20110201628A1, “HETEROCYCLIC JAK KINASE INHIBITORS” (priority 2008, published 2011).

Where only a bound is given, the exact number is not on record here.

In general, IC50 refers to the concentration that inhibits the measured activity by half.

The first experiment deals with T1, C-terminal His6-tagged, recombinant, human JAK2, amino acids 808-end (Homo sapiens, UniProt O60674).
T1 construct: His6 (C); purchased Upstate Biotechnology MA; host or cells: baculovirus in Sf21 cells
T1 sequence (O60674 808-1132 limits assumed): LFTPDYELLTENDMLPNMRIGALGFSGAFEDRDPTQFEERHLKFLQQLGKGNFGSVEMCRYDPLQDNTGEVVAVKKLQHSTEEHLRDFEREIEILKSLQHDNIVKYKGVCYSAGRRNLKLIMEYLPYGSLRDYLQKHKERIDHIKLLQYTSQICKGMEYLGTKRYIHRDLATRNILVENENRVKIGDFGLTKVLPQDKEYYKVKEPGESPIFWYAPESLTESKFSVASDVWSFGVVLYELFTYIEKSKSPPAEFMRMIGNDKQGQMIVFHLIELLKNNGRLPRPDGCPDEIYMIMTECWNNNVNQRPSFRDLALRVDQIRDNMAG
Kind of experiment: JAK2 kinase Alphascreen assay (Method 1). It counts as biochemical. As to conditions: Alphascreen, 150 pM JAK2 enzyme, 5 mM ATP, 80 nM Tyk2 peptide, 60 minutes room temperature; read-out: IC50 Assay (Method 1). Here is the method:
To measure JAK2 kinase activity, a commercially available purified enzyme may be used. […] After incubation of the kinase with a biotinylated substrate and adenosine triphosphate (ATP) for 60 minutes at room temperature, the kinase reaction may be stopped by the addition of 30 mM ethylenediaminetetraacetic acid (EDTA). The reaction may be performed in 384 well microtitre plates and the reaction products may be detected with the addition of streptavidin coated Donor Beads and phosphotyrosine-specific antibodies coated Acceptor Beads using the EnVision Multilabel Plate Reader after an overnight incubation at room temperature. “Tween 20” is a registered trademark of ICI Americas, Inc.
Take `C[C@H](Nc1ccc2c(Nc3cn(C)cn3)nc(N[C@@H](C)c3ncc(F)cn3)nc2n1)c1ncc(F)cn1` [Example 39, N^2,N^7-bis[(1S)-1-(5-fluoropyrimidin-2-yl)ethyl]-N^4-(1-methyl-1H-imidazol-4-yl)pyrido[2,3-d]pyrimidine-2,4,7-triamine]: the IC50 was found to be 0.003 µM. Consider `CC(Nc1nc2c(c(Nc3cn(C)cn3)n1)CCC2)c1ncc(F)cn1` (single isomer, unassigned) [Example 8(a), N^2-[1-(5-Fluoropyrimidin-2-yl)ethyl]-N^4-(1-methyl-1H-imidazol-4-yl)-6,7-dihydro-5H-cyclopenta[d]pyrimidine-2,4-diamine], for which the IC50 came to 20 µM. Turning to `CC(Nc1nc(Nc2cn(C)cn2)c2cnn(C)c2n1)c1ncc(F)cn1` (single isomer, unassigned) [Example 11(a), N^6-[1-(5-Fluoropyrimidin-2-yl)ethyl]-1-methyl-N^4-(1-methyl-1H-imidazol-4-yl)-1H-pyrazolo[3,4-d]pyrimidine-4,6-diamine], the IC50 was found to be 6.4 µM.

For `Cc1nc2c(Nc3cn(C)cn3)nc(N[C@@H](C)c3ncc(F)cn3)nc2s1` [Example 7, N^5-[(1S)-1-(5-Fluoropyrimidin-2-yl)ethyl]-2-methyl-N^7-(1-methyl-1H-imidazol-4-yl)[1,3]thiazolo[5,4-d]pyrimidine-5,7-diamine], the IC50 is 1.9 µM. Still for that read-out and setting: with `CC(Nc1nc(Nc2cn(C)cn2)c2ccncc2n1)c1ncc(F)cc1F` (single isomer, unassigned) [Example 43(a), N^2-[1-(3,5-Difluoropyridin-2-yl)ethyl]-N^4-(1-methyl-1H-imidazol-4-yl)pyrido[3,4-d]pyrimidine-2,4-diamine] the figure was less than 0.003 µM; with `CC(Nc1nc(Nc2cn(C)cn2)c2ccccc2n1)c1ncc(F)cn1` (single isomer, unassigned) [Example 45(a), N^2-[1-(5-Fluoropyrimidin-2-yl)ethyl]-N^4-(1-methyl-1H-imidazol-4-yl)quinazoline-2,4-diamine], 0.064 µM.

As for `C[C@H](Nc1nc2c(c(Nc3cn(C)cn3)n1)CCC2)c1ncc(F)cn1` [Example 8, N^2-[(1S)-1-(5-Fluoropyrimidin-2-yl)ethyl]-N^4-(1-methyl-1H-imidazol-4-yl)-6,7-dihydro-5H-cyclopenta[d]pyrimidine-2,4-diamine], the 50% inhibitory concentration (IC50) was determined as 0.016 µM. In the case of `COc1ccc2nc(N[C@@H](C)c3ncc(F)cn3)nc(Nc3cn(C)cn3)c2c1` [Example 28, N^2-[(1S)-1-(5-Fluoropyrimidin-2-yl)ethyl]-6-methoxy-N^4-(1-methyl-1H-imidazol-4-yl)quinazoline-2,4-diamine], the IC50 stood at 0.67 µM. Same read-out and setting: with `Cc1nc2c(Nc3cn(C)cn3)nc(NC(C)c3ncc(F)cn3)nc2s1` (single isomer, unassigned) [Example 7(b), N^5-[1-(5-Fluoropyrimidin-2-yl)ethyl]-2-methyl-N^7-(1-meth 1-1H-imidazol-4-yl)[1,3]thiazolo[5,4-d]pyrimidine-5,7-diamine] the figure was 21.6 µM; with `C[C@H](Nc1nc(Nc2cn(C)cn2)c2[nH]ccc2n1)c1ncc(F)cn1` [Example 6, N^2-[(1S)-1-(5-Fluoropyrimidin-2-yl)ethyl]-N^4-(1-methyl-1H-imidazol-4-yl)-5H-pyrrolo[3,2-d]pyrimidine-2,4-diamine], less than 0.003 µM; with `C[C@H](Nc1nc(Nc2cn(C)cn2)c2cn[nH]c2n1)c1ncc(F)cn1` [Example 46, N^6-[(1S)-1-(5-Fluoropyrimidin-2-yl)ethyl]-N^4-(1-methyl-1H-imidazol-4-yl)-1H-pyrazolo[3,4-d]pyrimidine-4,6-diamine], 0.021 µM. Still for that read-out and setting: with `CC(Nc1nc2c(c(Nc3cn(C)cn3)n1)CNC2)c1ncc(F)cn1` (single isomer, unassigned) [Example 18(b), N^2-[1-(5-Fluoropyrimidin-2-yl)ethyl]-N^4-(1-methyl-1H-imidazol-4-yl)-6,7-dihydro-5H-pyrrolo[3,4-d]pyrimidine-2,4-diamine] the figure was 0.45 µM; with `CC(Nc1nc2c(c(Nc3cn(C)cn3)n1)CNCC2)c1ncc(F)cn1` (single isomer, unassigned) [17(a), N^2-[1-(5-Fluoropyrimidin-2-yl)ethyl]-N^4-(1-methyl-1H-imidazol-4-yl)-5,6,7,8-tetrahydropyrido[4,3-d]pyrimidine-2,4-diamine], 0.22 µM; with `COCC(Nc1nc(Nc2cn(C)cn2)c2cnn(C)c2n1)c1ncc(F)cc1F` (single isomer, unassigned) [Example 13(b), N^6-[1-(3,5-Difluoropyridin-2-yl)-2-methoxyethyl]-1-methyl-N^4-(1-methyl-1H-imidazol-4-yl)-1H-pyrazolo[3,4-d]pyrimidine-4,6-diamine], less than 0.003 µM.

Take `CC(Nc1nc(Nc2cn(C)cn2)c2ccc(N3CCOCC3)nc2n1)c1ncc(F)cc1F` (single isomer, unassigned) [Example 40(b), N^2-[1-(3,5-Difluoropyridin-2-yl)ethyl]-N^4-(1-methyl-1H-imidazol-4-yl)-7-morpholin-4-ylpyrido[2,3-d]pyrimidine-2,4-diamine]: the 50% inhibitory concentration (IC50) is less than 0.003 µM.

For `CC(Nc1nc2c(c(Nc3cn(C)cn3)n1)CCC2)c1ncc(F)cn1` (single isomer, unassigned) [Example 8(b), N^2-[1-(5-Fluoropyrimidin-2-yl)ethyl]-N^4-(1-methyl-1H-imidazol-4-yl)-6,7-dihydro-5H-cyclopenta[d]pyrimidine-2,4-diamine], the IC50 was less than 0.003 µM. On to `Cc1nc2c(Nc3cn(C)cn3)nc(NC(C)c3ncc(F)cn3)nc2s1` (single isomer, unassigned) [Example 7(a), N^5-[1-(5-Fluoropyrimidin-2-yl)ethyl]-2-methyl-N^7-(1-methyl-1H-imidazol-4-yl)[1,3]thiazolo[5,4-d]pyrimidine-5,7-diamine], for which the IC50 stood at 0.57 µM. Same read-out and setting: with `CC(Nc1nc(Nc2cn(C)cn2)c2cc(F)cnc2n1)c1ncc(F)cn1` (single isomer, unassigned) [Example 38(a), 6-Fluoro-N^2-[1-(5-fluoropyrimidin-2-yl)ethyl]-N^4-(1-methyl-1H-imidazol-4-yl)pyrido[2,3-d]pyrimidine-2,4-diamine] the figure was 0.1 µM. On the same count and under the same terms, with `CC(Nc1nc(Nc2cn(C)cn2)c2ccn(C)c2n1)c1ncc(F)cn1` (single isomer, unassigned) [Example 23(a), N^2-[1-(5-Fluoropyrimidin-2-yl)ethyl]-7-methyl-N^4-(1-methyl-1H-imidazol-4-yl)-7H-pyrrolo[2,3-d]pyrimidine-2,4-diamine] the figure was less than 0.003 µM; with `CC(Nc1nc(Nc2cn(C)cn2)c2nccnc2n1)c1ncc(F)cn1` (single isomer, unassigned) [Example 10(b), N^2-[1-(5-Fluoropyrimidin-2-yl)ethyl]-N^4-(1-methyl-1H-imidazol-4-yl)pteridine-2,4-diamine], 0.2 µM. For `CC(Nc1nc(Nc2cn(C)cn2)c2cnn(C)c2n1)c1ncc(F)cn1` (single isomer, unassigned) [Example 11(b), N^6-[1-(5-Fluoropyrimidin-2-yl)ethyl]1-methyl-N^4-(1-methyl-1H-imidazol-4-yl)-1H-pyrazolo[3,4-d]pyrimidine-4,6-diamine], the IC50 was less than 0.003 µM.

For the compound `CC(Nc1nc(Nc2cn(C)cn2)c2nccnc2n1)c1ncc(F)cn1` (single isomer, unassigned) [Example 10(a), N^2-[1-(5-Fluoropyrimidin-2-yl)ethyl]-N^4-(1-methyl-1H-imidazol-4-yl)pteridine-2,4-diamine], the IC50 worked out at 6.4 µM. As to `CC(Nc1nc(Nc2cn(C)cn2)c2ccsc2n1)c1ncc(F)cn1` (single isomer, unassigned) [Example 1(a), N^2-[1-(5-Fluoropyrimidin-2-yl)ethyl]-N^4-(1-methyl-1H-imidazol-4-yl)thieno[2,3-d]pyrimidine-2,4-diamine], the IC50 was found to be 28.8 µM.

For `COc1ccc2nc(NC(C)c3ncc(F)cc3F)nc(Nc3cn(C)cn3)c2c1` (racemic) [Example 29, N^2-[1-(3,5-Difluoropyridin-2-yl)ethyl]-6-methoxy-N^4-(1-methyl-1H-imidazol-4-yl)quinazoline-2,4-diamine], the concentration for half-maximal inhibition (IC50) was found to be 0.5 µM.

As for `C[C@H](Nc1nc(Nc2cn(C)cn2)c2ccccc2n1)c1ncc(F)cn1` [Example 45, N^2-[(1S)-1-(5-Fluoropyrimidin-2-yl)ethyl]-N^4-(1-methyl-1H-imidazol-4-yl)quinazoline-2,4-diamine], the half-maximal inhibitory concentration (IC50) is less than 0.003 µM. Consider `Cc1ccc(S(=O)(=O)n2ccc3c(Nc4cn(C)cn4)nc(N[C@@H](C)c4ncc(F)cn4)nc32)cc1` [Example 3, N^2-[(1S)-1-(5-Fluoropyrimidin-2-yl)ethyl]-N^4-(1-methyl-1H-imidazol-4-yl)-7-[(4-methylphenyl)sulfonyl]-7H-pyrrolo[2,3-d]pyrimidine-2,4-diamine], for which the IC50 was determined as 0.213 µM. Same read-out and setting: with `CC(Nc1nc(Nc2cn(C)cn2)c2cnn(C)c2n1)c1ncc(F)cc1F` (single isomer, unassigned) [Example 14(a), N^6-[1-(3,5-Difluoropyridin-2-yl)ethyl]-1-methyl-N^4-(1-methyl-1H-imidazol-4-yl)-1H-pyrazolo[3,4-d]pyrimidine-4,6-diamine] the figure was 5.4 µM.

Staying with this experiment, now noted: IC50 Assay (Method 1).
On to `CC(Nc1nc(Nc2cn(C)cn2)c2cc(F)cnc2n1)c1ncc(F)cn1` (single isomer, unassigned) [Example 38(b), 6-Fluoro-N^2-[1-(5-fluoropyrimidin-2-yl)ethyl]-N^4-(1-methyl-1H-imidazol-4-yl)pyrido[2,3-d]pyrimidine-2,4-diamine], for which the IC50 came to 0.49 µM.
